From ChEMBL document CHEMBL5233264, “Targeting MYC: From understanding its biology to drug discovery” (Eur J Med Chem, 2021)

Assays:
[1] = target: Bromodomain-containing protein 4 (Homo sapiens, UniProt O60885); assay: Inhibition of BRD4 (unknown origin)
4T1 = assay: Anticancer activity against mouse 4T1 cells; assay type: functional, cell-based
Quadruplex DNA [2] = assay: Binding affinity to MYC G4-quadruplex DNA (unknown origin) assessed as dissociation constant; assay type: nucleic-acid assay
HepG2 = assay: Anticancer activity against human HepG2 cells; assay type: functional, cell-based
Calf thymus DNA = assay: Binding affinity to calf thymus DNA sequence; assay type: nucleic-acid assay, Bos taurus
Quadruplex DNA [3] = assay: Binding affinity to human MYC G4 DNA sequence; assay type: nucleic-acid assay
[4] = Binding affinity to MYC bHLH Zip (unknown origin) assessed as dissociation constant by microscale thermophoresis assay; set-up: species or system Homo sapiens
[5] = Growth inhibition of human Burkitts lymphoma cell; assay type: functional, cell-based
Homo sapiens [6] = species: Homo sapiens; assay: Binding affinity to double-stranded DNA FdxT (unknown origin) assessed as change in melting temperature at 1 uM by high-throughput FRET melting assay
Homo sapiens [7] = species: Homo sapiens; assay: Binding affinity to human telomeric repeat F21T assessed as change in melting temperature at 1 uM by high-throughput FRET melting assay
Homo sapiens [8] = species: Homo sapiens; assay: Binding affinity to c-MYC promoter G4 sequences FmycT (unknown origin) assessed as change in melting temperature at 1 uM by high-throughput FRET melting assay
[9] = In vivo inhibition of BRD4 in human MV4-11 cells xenografted in mouse tumor model; assay type: functional, organism-based
HL-60 = assay: Cytotoxicity against human HL-60 cells measured after 72 hrs by MTT assay; assay type: functional, cell-based; conditions: HL-60, 72 h

Oc1ccc(Cl)c2cccnc12 [CLOXYQUIN]
IC50 [1]: 6470 nM

CCS(=O)(=O)Nc1ccc(Oc2ccc(F)cc2F)c(-c2cn(C)c(=O)c3[nH]ccc23)c1 [MIVEBRESIB]
IC50 [1]: 3 nM

CN1CCN(c2ccc(-c3nc(-c4nc5ccccc5s4)[nH]c3-c3ccc(N4CCN(C)CC4)cc3)cc2)CC1
IC50 (4T1): 3900 nM
Kd (Quadruplex DNA [2]): 2000 nM
IC50 (HepG2): 4500 nM

CN(CCc1ccc(Br)cc1)c1ccc2nc3ccc(N(C)CCc4ccc(Br)cc4)cc3[s+]c2c1
Kd (Calf thymus DNA): 11000 nM
IC50 (HepG2): 1000 nM
Kd (Quadruplex DNA [3]): 70 nM

O=c1oc2c3c4c(cc2cc1-c1nc2ccccc2s1)CCCN4CCC3
Kd (Quadruplex DNA [2]): 2000 nM

CCOc1ccc2nc3cc(/N=N/c4ccc(N)cc4N)ccc3c(N)c2c1
Kd [4]: 2000 nM
IC50 [5]: 500 nM

CN1CCN(c2ccc(-c3nc4cc(F)c(F)cc4nc3-c3ccc(N4CCN(C)CC4)cc3)cc2)CC1
IC50 (4T1): 700 nM
Kd (Quadruplex DNA [2]): 1300 nM

C[n+]1cc(NC(=O)c2ccc3ccc4ccc(C(=O)Nc5cc6ccccc6[n+](C)c5)nc4c3n2)cc2ccccc21
ΔTm (Homo sapiens [6]): 0 °C
ΔTm (Homo sapiens [7]): 17.3 °C
ΔTm (Homo sapiens [8]): 12 °C

Cc1noc2c1-c1ccccc1C(c1ccc(Cl)cc1)=N[C@H]2CC(N)=O [PELABRESIB]
IC50 [9]: 120 nM

c1cc2ccc3ccc4nc3c2nc1CNCCCCCCCNC4
ΔTm (Homo sapiens [6]): 9.2 °C
ΔTm (Homo sapiens [7]): 9.2 °C
ΔTm (Homo sapiens [8]): 3.6 °C

CCn1cc(C(=O)O)c(=O)c2cc(F)c(N3CCNCC3)cc21 [NORFLOXACIN]
IC50 [1]: 980 nM

CCCCOC(=O)CCN1C(=O)S/C(=C\c2ccc(CC)cc2)C1=O
IC50 (HL-60): 5000 nM

O=[N+]([O-])c1ccc(Nc2ccccc2-c2ccccc2)c2nonc12
IC50 (HL-60): 23000 nM

COC(=O)c1ccc(Nc2ccc([N+](=O)[O-])c3nonc23)c(-c2ccc(C)cc2)c1
IC50 (HL-60): 23000 nM

CN(C)c1ccc2nc3ccc(N(C)C)cc3[s+]c2c1 [METHYLENE BLUE ANHYDROUS]
Kd (Calf thymus DNA): 200 nM
IC50 (HepG2): 6000 nM
Kd (Quadruplex DNA [3]): 200 nM
